Patent publication US8748421B2, “Triazine compounds as P13 kinase and MTOR inhibitors” (Wyeth LLC, priority 2009, dated 2014)

Experiments:
human SMG-1 (hSMG-1) = human SMG-1 (hSMG-1) (Homo sapiens, UniProt Q96Q15); test: hSMG-1 kinase assay (DELFIA); format: biochemical
[1] = test system: human prostate LNCap tumor cell line; test: In vitro cell culture growth assay (MTS), LNCap; settings: 72 h, read-out: IC50 LNCap
[2] = test system: human breast MDA-MB-361 tumor cell line; test: In vitro cell culture growth assay (MTS), MDA-MB-361; format: cell-based; settings: 72 h, human breast MDA-MB-361 cells, three days after drug treatment
[3] = test system: human prostate PC3-mm2 tumor cell line; test: In vitro cell culture growth assay (MTS), PC3-mm2; format: cell-based; settings: PC3MM2, 72 h, human prostate PC3-mm2 cells, three days after drug treatment
PI3K-alpha = PI3K-alpha (Homo sapiens, UniProt P42336); test: PI3K-alpha fluorescence polarization assay; settings: read-out: IC50 PI3Kα
PI3K-gamma = PI3K-gamma (Homo sapiens, UniProt P48736); test: PI3K-gamma fluorescence polarization assay; settings: read-out: IC50 PI3Kγ
[4] = test system: acute lymphoblastic leukemia xenograft; settings: NOS/SCID mouse; cited from earlier work
[5] = test system: human tumor xenograft models; settings: chronic oral administration, 400 mg/kg; A549, PC-3, WiDr; cited from earlier work

Chain of PI3K-alpha (P42336 whole entry, species assumed): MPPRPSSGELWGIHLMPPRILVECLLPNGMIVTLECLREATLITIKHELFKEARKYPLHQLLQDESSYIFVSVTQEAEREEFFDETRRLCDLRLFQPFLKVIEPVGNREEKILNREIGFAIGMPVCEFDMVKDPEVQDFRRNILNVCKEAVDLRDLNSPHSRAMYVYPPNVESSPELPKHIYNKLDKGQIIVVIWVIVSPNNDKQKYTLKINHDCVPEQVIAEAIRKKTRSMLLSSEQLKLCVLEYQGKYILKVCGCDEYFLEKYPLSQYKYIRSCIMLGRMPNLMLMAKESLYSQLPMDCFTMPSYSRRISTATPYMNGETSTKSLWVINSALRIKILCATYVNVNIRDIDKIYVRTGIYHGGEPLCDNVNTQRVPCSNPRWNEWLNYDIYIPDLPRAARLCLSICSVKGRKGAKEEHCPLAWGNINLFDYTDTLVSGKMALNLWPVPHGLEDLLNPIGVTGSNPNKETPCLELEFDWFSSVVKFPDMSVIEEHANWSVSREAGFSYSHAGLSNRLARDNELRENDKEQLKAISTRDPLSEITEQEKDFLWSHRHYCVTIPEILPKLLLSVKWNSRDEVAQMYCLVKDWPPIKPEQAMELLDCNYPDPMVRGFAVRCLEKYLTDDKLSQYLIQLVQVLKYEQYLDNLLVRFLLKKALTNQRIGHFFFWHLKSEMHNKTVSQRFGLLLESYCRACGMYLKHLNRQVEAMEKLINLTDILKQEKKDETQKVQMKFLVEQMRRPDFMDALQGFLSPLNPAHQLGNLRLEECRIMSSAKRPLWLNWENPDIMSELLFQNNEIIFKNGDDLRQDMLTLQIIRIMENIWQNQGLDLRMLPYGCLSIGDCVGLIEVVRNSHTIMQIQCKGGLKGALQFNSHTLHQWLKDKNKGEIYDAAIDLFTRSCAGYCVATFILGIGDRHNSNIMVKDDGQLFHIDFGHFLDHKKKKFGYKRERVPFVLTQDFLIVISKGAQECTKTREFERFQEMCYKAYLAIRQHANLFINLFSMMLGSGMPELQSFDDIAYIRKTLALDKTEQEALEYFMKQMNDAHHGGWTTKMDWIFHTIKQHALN
Chain of PI3K-alpha (P27986 whole entry partner, species assumed): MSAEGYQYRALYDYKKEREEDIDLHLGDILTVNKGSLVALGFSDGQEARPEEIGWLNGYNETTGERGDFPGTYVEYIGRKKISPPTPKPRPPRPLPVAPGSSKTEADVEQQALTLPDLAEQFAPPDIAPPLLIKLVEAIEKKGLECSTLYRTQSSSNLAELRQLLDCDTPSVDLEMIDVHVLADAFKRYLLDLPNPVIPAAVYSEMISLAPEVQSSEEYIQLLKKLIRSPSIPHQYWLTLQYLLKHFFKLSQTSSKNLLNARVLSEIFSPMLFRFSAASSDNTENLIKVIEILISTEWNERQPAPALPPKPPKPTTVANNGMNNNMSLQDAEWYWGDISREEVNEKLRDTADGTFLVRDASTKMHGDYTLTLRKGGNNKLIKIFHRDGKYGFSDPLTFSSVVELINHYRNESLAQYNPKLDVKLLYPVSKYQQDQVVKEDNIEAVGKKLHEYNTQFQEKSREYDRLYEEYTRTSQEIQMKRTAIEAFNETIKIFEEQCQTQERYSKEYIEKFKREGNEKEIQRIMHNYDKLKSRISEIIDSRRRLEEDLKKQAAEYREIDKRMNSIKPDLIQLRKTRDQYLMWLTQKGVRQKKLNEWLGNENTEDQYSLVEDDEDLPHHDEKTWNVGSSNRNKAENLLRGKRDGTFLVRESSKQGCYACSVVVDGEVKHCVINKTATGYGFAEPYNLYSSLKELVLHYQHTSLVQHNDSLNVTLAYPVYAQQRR
Chain of PI3K-gamma (P48736 whole entry, species assumed): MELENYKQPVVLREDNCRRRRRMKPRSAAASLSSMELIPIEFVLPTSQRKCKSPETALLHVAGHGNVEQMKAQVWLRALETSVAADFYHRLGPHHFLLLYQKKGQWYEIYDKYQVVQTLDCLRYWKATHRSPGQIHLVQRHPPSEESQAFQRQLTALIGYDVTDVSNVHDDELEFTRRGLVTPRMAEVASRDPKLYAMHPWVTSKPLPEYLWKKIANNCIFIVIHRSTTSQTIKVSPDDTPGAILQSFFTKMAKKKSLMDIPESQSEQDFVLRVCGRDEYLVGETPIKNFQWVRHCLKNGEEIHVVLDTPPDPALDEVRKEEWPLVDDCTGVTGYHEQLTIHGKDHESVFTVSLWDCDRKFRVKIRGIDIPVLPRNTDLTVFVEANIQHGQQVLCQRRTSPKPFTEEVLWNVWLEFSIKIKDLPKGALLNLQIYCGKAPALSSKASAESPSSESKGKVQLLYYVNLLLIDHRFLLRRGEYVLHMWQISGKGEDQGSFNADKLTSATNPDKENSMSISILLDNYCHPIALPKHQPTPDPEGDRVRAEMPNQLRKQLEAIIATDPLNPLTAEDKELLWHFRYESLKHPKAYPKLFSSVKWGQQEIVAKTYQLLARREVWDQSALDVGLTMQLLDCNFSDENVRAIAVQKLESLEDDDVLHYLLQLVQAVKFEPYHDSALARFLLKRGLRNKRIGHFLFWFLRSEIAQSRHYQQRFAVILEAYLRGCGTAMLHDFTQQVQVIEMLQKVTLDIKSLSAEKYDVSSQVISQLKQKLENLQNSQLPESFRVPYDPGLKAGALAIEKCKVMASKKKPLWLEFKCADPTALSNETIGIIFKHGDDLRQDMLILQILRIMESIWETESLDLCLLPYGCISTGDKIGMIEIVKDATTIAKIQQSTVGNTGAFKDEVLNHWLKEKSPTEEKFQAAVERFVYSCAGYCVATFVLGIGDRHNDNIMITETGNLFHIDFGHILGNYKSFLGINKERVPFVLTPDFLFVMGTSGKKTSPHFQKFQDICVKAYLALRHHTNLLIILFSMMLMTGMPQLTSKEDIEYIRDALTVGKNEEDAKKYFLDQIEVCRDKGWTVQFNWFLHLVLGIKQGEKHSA

Row | Compound | IC50 (PI3K-alpha) [nM] | IC50 (PI3K-gamma) [nM] | further results
1 | CNC(=O)Nc1ccc(-c2nc(-c3ccc(NC(=O)Nc4ccc(C(N)=O)cc4)cc3)nc(N3CCOCC3)n2)cc1 [Example 462, 4-({[4-(4-{4-[(methylcarbamoyl)amino]phenyl}-6-morpholin-4-yl-1,3,5-triazin-2-yl)phenyl]carbamoyl}amino)benzamide] | – | – | IC50 (human SMG-1 (hSMG-1)): 1 nM
2 | CNC(=O)Nc1ccc(-c2nc(-c3ccc(NC(=O)Nc4cccc(C(N)=O)c4)cc3)nc(N3CCOCC3)n2)cc1 [Example 466, 3-({[4-(4-{4-[(methylcarbamoyl)amino]phenyl}-6-morpholin-4-yl-1,3,5-triazin-2-yl)phenyl]carbamoyl}amino)benzamide] | – | – | IC50 [1]: 420 nM
3 | CN(C)CCNC(=O)c1ccc(NC(=O)Nc2ccc(-c3nc(N4CCCCC4)nc(N4CCOCC4)n3)cc2)cc1 [Example 601, N-[2-(dimethylamino)ethyl]-4-({[4-(4-morpholin-4-yl-6-piperidin-1-yl-1,3,5-triazin-2-yl)phenyl]carbamoyl}amino)benzamide] | – | – | IC50 [2]: 22 nM; IC50 [3]: 155 nM
4 | C[C@H]1CN(C(=O)c2ccc(NC(=O)Nc3ccc(-c4nc(N5CCOCC5)nc(N5CCOCC5)n4)cc3)cc2)CCN1C1CCC1 [Example 863, 1-(4-{[(3S)-4-cyclobutyl-3-methylpiperazin-1-yl]carbonyl}phenyl)-3-{4-[4,6-di(morpholin-4-yl)-1,3,5-triazin-2-yl]phenyl}urea] | 2.1 | 8 | –
5 | C[C@H]1CN(C(=O)c2ccc(NC(=O)Nc3ccc(-c4nc(N5CCOCC5)nc(N5CCOCC5)n4)cc3)cc2)CCN1C [Example 864, 1-(4-{[(3S)-3,4-dimethylpiperazin-1-yl]carbonyl}phenyl)-3-{4-[4,6-di(morpholin-4-yl)-1,3,5-triazin-2-yl]phenyl}urea] | 1 | 7.5 | –
6 | CN1CCN(C(=O)c2ccc(NC(=O)Nc3ccc(-c4nc(C5CCOCC5)nc(N5CCOCC5)n4)cc3)cc2)CC1(C)C [Example 865, 1-{4-[4-(morpholin-4-yl)-6-(tetrahydro-2H-pyran-4-yl)-1,3,5-triazin-2-yl]phenyl}-3-{4-[(3,3,4-trimethylpiperazin-1-yl)carbonyl]phenyl}urea] | 2.45 | 12 | –
7 | C[C@H]1CN(C(=O)c2ccc(NC(=O)Nc3ccc(-c4nc(C5CCOCC5)nc(N5CCOCC5)n4)cc3)cc2)CCN1C [Example 866, 1-(4-{[(3S)-3,4-dimethylpiperazin-1-yl]carbonyl}phenyl)-3-{4-[4-(morpholin-4-yl)-6-(tetrahydro-2H-pyran-4-yl)-1,3,5-triazin-2-yl]phenyl}urea] | 1.6 | 16.5 | –
8 | C[C@H]1CN(C(=O)c2ccc(NC(=O)Nc3ccc(-c4nc(C5CCOCC5)nc(N5CCOCC5)n4)cc3)cc2)CCN1 [Example 867, 1-(4-{[(3S)-3-methylpiperazin-1-yl]carbonyl}phenyl)-3-{4-[4-(morpholin-4-yl)-6-(tetrahydro-2H-pyran-4-yl)-1,3,5-triazin-2-yl]phenyl}urea] | 0.4 | 7 | –
9 | CN(C)[C@@H]1CCN(C(=O)c2ccc(NC(=O)Nc3ccc(-c4nc(C5CCOCC5)nc(N5CCOCC5)n4)cc3)cc2)C1 [Example 868, 1-(4-{[(3R)-3-(dimethylamino)pyrrolidin-1-yl]carbonyl}phenyl)-3-{4-[4-morpholin-4-yl-6-(tetrahydro-2H-pyran-4-yl)-1,3,5-triazin-2-yl]phenyl}urea] | 0.65 | 4.5 | –
10 | CN(C)[C@H]1CCN(C(=O)c2ccc(NC(=O)Nc3ccc(-c4nc(C5CCOCC5)nc(N5CCOCC5)n4)cc3)cc2)C1 [Example 869, 1-(4-{[(3S)-3-(dimethylamino)pyrrolidin-1-yl]carbonyl}phenyl)-3-{4-[4-morpholin-4-yl-6-(tetrahydro-2H-pyran-4-yl)-1,3,5-triazin-2-yl]phenyl}urea] | 0.6 | 6.5 | –
11 | CO[C@H]1C[C@@H]2CC[C@@H](C)[C@@](O)(O2)C(=O)C(=O)N2CCCC[C@H]2C(=O)O[C@H]([C@H](C)C[C@@H]2CC[C@@H](OC(=O)C(C)(CO)CO)[C@H](OC)C2)CC(=O)[C@H](C)/C=C(\C)[C@@H](O)[C@@H](OC)C(=O)[C@H](C)C[C@H](C)/C=C/C=C/C=C/1C [Torisel] | – | – | activity in xenograft mouse model of acute lymphoblastic leukemia [4]: active
12 | FC(F)c1nc2ccccc2n1-c1nc(N2CCOCC2)nc(N2CCOCC2)n1 [ZSTK474, 2-(2-difluoromethylbenzoimidazol-1-yl)-4,6-dimorpholino-1,3,5-triazine] | – | – | tumor growth inhibition in mouse human xenograft cancer models [5]: completely inhibited growth
